# Reference: publication PMC5575254, “An allosteric ligand-binding site in the extracellular cap of K2P channels” (Nature Communications, 2017)
# Legend:
# [1] = Solubility of TKDC (remark); assay type: physicochemical
# mice = experiment: Acute administration behavioral tests; assay type: in vivo, Male C57BL/6 mice; details: single i.p. injection, tests 30 min after administration
# Description: Male C57BL/6 mice, aged 8 weeks (weighing 18–20 g) were used for acute and chronic drug administration and behavioral tests. The mice were housed four per cage under a 12-h light–dark cycle. Mice were raised under stable conditions with food and water ad libitum. All animal studies and experimental procedures were approved by the Animal Care Committees of the Shanghai Institute of Materia Medica, Chinese Academy of Sciences, and experiments were carried out in accordance with EU Directive 2010/63/EU on the protection of animals used for scientific purposes. […] The mice were removed to a sound-attenuating testing room 3–4 h before testing. […]
# The apparatus was made of opaque Plexiglas (50 cm × 50 cm) and placed in a room with sound proof. […] The mice were randomly placed into the center of the sheet following 30 min drugs administration and their behaviors in the open field arena were recorded for 10 min using the camera. […] Locomotor activity and exploratory behavior were measured in the open field test and each animal was placed individually at the center for a 10 min session. The total distance moved and the number of rearing was measured in this experiment. […]
# The mice were performed under normal light. […] The duration of immobility defined as floating or remaining motionless was assessed. […]
# TREK-1 channel = biological target: T1, TREK-1 channel (Homo sapiens, UniProt O95069); experiment: Whole-cell voltage clamp of CHO cells transiently transfected with TREK-1; assay type: cell-based
# T1 construct: expressed in transfected cells; host or cells: CHO cells, transient transfection
# T1 sequence (O95069 1-411 isoform O95069-2): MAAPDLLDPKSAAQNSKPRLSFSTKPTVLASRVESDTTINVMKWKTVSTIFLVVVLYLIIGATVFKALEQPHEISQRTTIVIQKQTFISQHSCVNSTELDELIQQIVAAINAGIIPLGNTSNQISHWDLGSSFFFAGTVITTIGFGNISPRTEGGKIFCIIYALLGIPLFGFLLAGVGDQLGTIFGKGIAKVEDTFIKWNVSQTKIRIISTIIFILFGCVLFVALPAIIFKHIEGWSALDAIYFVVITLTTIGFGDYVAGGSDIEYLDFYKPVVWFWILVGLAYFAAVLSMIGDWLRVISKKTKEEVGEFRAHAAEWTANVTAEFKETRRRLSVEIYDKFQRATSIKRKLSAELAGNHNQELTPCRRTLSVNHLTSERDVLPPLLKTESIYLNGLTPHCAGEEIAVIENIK
# Description: (§1) cDNA of the human TREK-1, TREK-2 and TRAAK channels were subcloned into the pEGFPN1 expression vector (Invitrogen), respectively. Mutations were introduced into TREK-1 or TRAAK by PCR using the QuickChange XL sitedirected mutagenesis kit (Agilent Technologies) and were subsequently confirmed by DNA sequencing.
# (§2) Chinese hamster ovary (CHO) cells were provided by the Cell Bank of Chinese Academy of Sciences (Shanghai, China). CHO cells were maintained in DMEM/F12 (Gibco) supplemented with 10% fetal bovine serum (Gibco) and 100 μg ml^−1 penicillin-streptomycin (Cellgro) in a humidified incubator at 37 °C (5% CO2). For electrophysiology experiments, cells plated in 35 mm tissue culture dishes (Corning Incorporated) were transiently transfected with the plasmids using PolyJet™ reagent (SignaGen) according to the manufacturer’s instructions. Primers used in this study are listed in Supplementary Table 4.
# (§3) All electrophysiological recordings were obtained using patch-clamp recordings in two different configurations: (1) whole cell for macroscopic current dose–response curves; and (2) outside-out and inside-out for macroscopic currents recordings.
# All patch-clamp recordings were conducted 36–96 h after transfection with an Axopatch-200B amplifier (Molecular Devices) at room temperature (23–25 °C). The microelectrodes fashioned from 1.5 mm thin-walled borosilicate glass with filament were pulled from Flaming/Brown type micropipette puller (P-97; SUTTER INSTRUMENT) with the resistances of 3–7 MΩ (whole cell) or 7–15 MΩ (outside-out) when filled with a solution containing (in mM): 140 KCl, 2 MgCl2, 10 EGTA, 1 CaCl2, 10 HEPES (pH 7.3, adjusted with KOH). External solution contained (in mM): 150 NaCl, 5 KCl, 0.5 CaCl2, 1.2 MgCl2, 10 HEPES (pH 7.3, adjusted with NaOH). The current signals were filtered at 1 kHz and digitized at a 10 kHz sampling frequency by using DigiData 1440 A.
# Data of whole-cell voltage clamp experiments were fitted using doseResp function. The half inhibition concentrations were derived from fits of the dose–response curves to the function:1 I/I0=A1+A2-A1/1+10^logx0-xP, where I 0 and I are current amplitudes before and after application of inhibitors; A 1 and A 2 are constants between 0 and 1; x is the concentration of inhibitor; x o is the concentration when 50% inhibition was reached (IC50), P is the Hill constant.
# mutant TRAAK channels [2] = tested on: T2, mutant TRAAK channels; experiment: Whole-cell voltage clamp of mutant TRAAK channels; assay type: cell-based, human; details: 100 μM, L39W mutant
# T2 construct: expressed in transfected cells; host or cells: CHO cells, transient transfection
# Description: as §1, §2, §3
# (§4) All patch-clamp recordings were conducted 36–96 h after transfection with an Axopatch-200B amplifier (Molecular Devices) at room temperature (23–25 °C). […]
# mutant TRAAK channels [3] = experiment: Whole-cell voltage clamp of mutant TRAAK channels; assay type: cell-based, human; details: A35Q, E38T and V42Q mutants
# Description: as §1, §2, §3, §4
compound,measurement,setting,value
"CS(=O)(=O)N(CC(=O)N1CCc2ccccc2C1)c1ccc(Cl)cc1 [TKDC, N-(4-cholorphenyl)-N-(2-(3,4-dihydrosioquinolin-2(1H)-yl)-2-oxoethyl)methanesulfonamide]",solubility,[1],not very soluble
same,antidepressant-like effect in the acute treatment,mice,fast antidepressant-like effect
same,effect on TREK-1 current,TREK-1 channel; perfusion with 10 μM,pronounced decreases in current
same,IC50,"TREK-1 channel; whole-cell, CHO cells, WT TREK-1, mean ± s.e.m, read-out: half-maximal inhibition concentration (IC50), TREK-1",4.9 ± 0.6 µM
same,inhibitory effect on L39W TRAAK mutant versus wild type,mutant TRAAK channels [2],weaker than the TKDC-induced
same,TKDC-induced inhibition of mutant TRAAK versus WT,mutant TRAAK channels [3],enhanced inhibition
